Species on record: Rattus norvegicus
Test: DrugMatrix - Regimen: Daily Repeat
Format: toxicity, organism-based, Sprague-Dawley
Design: regimen Daily Repeat, gender Male, age 6-8 weeks
Conditions: in vivo, sc, […], route mini-PUMP - SUBCUTANEOUS, dose 4.2 mg/Kg, vehicle 100 % SALINE; for ABSOLUTE EOSINOPHIL / ABSOLUTE LYMPHOCYTE / ABSOLUTE MONOCYTE / ABSOLUTE SEGMENTED NEUTROPHIL / BASOPHIL / EOSINOPHIL / ERYTHROCYTE COUNT / HEMATOCRIT / HEMOGLOBIN / LEUKOCYTE COUNT / LYMPHOCYTE / MEAN CORPUSCULAR HEMOGLOBIN / MEAN CORPUSCULAR HEMOGLOBIN CONCENTRATION / MEAN CORPUSCULAR VOLUME / MONOCYTE / NEUTROPHIL / NUCLEATED RED BLOOD CELLS / PLATELET COUNT / ABSOLUTE BASOPHIL: tissue Blood; for ALANINE AMINOTRANSFERASE / ALBUMIN / ALKALINE PHOSPHATASE / ASPARTATE AMINOTRANSFERASE / BLOOD UREA NITROGEN / CARBON DIOXIDE / CHLORIDE / CHOLESTEROL / CREATININE / GLUCOSE / LACTATE DEHYDROGENASE / LIPASE / PHOSPHORUS / POTASSIUM / SODIUM / TOTAL BILIRUBIN / TOTAL PROTEIN / URIC ACID: tissue Plasma
[1] = 72 h, dose level M1, time 3 day
[2] = 120 h, dose level M1, time 5 day

## CC(C)NCC(O)c1ccc(O)c(O)c1 (stereo not given) [ISOPROTERENOL]
[1]
  ABSOLUTE EOSINOPHIL: 46 CELLS/uL
  ABSOLUTE LYMPHOCYTE: 13359 CELLS/uL
  ABSOLUTE MONOCYTE: 389.67 CELLS/uL
  ABSOLUTE SEGMENTED NEUTROPHIL: 972 CELLS/uL
  BASOPHIL: 0%
  EOSINOPHIL: 0.33%
  ERYTHROCYTE COUNT: 5.5 x10E6/uL
  HEMATOCRIT: 32.97%
  HEMOGLOBIN: 12.13 G/DL
  LEUKOCYTE COUNT: 14.77 x10E3/uL
  LYMPHOCYTE: 90.33%
  MEAN CORPUSCULAR HEMOGLOBIN: 22.1 pg
  MEAN CORPUSCULAR HEMOGLOBIN CONCENTRATION: 36.8 G/DL
  MEAN CORPUSCULAR VOLUME: 60.03 fL
  MONOCYTE: 2.67%
  NEUTROPHIL: 6.67%
  NUCLEATED RED BLOOD CELLS: 0.33 /100WBC
  PLATELET COUNT: 1142.67 x10E3/uL
  ALANINE AMINOTRANSFERASE: 50.67 u/L
  ALBUMIN: 3.93 G/DL
  ALKALINE PHOSPHATASE: 337 u/L
  ASPARTATE AMINOTRANSFERASE: 73.67 u/L
  BLOOD UREA NITROGEN: 13.33 mg/dL
  CARBON DIOXIDE: 25.33 mmol/L
  CHLORIDE: 103.67 MEQ/L
  CHOLESTEROL: 77.33 mg/dL
  CREATININE: 0.18 mg/dL
  GLUCOSE: 140.33 mg/dL
  LACTATE DEHYDROGENASE: 151 u/L
  LIPASE: 9 u/L
  PHOSPHORUS: 10.17 mg/dL
  POTASSIUM: 7.09 MEQ/L
  SODIUM: 146.4 MEQ/L
  TOTAL BILIRUBIN: 0.2 mg/dL
  TOTAL PROTEIN: 5.9 G/DL
  URIC ACID: 2.33 mg/dL
[2]
  ABSOLUTE BASOPHIL: 0 CELLS/uL
  ABSOLUTE EOSINOPHIL: 84 CELLS/uL
  ABSOLUTE LYMPHOCYTE: 11630 CELLS/uL
  ABSOLUTE MONOCYTE: 485 CELLS/uL
  ABSOLUTE SEGMENTED NEUTROPHIL: 2701 CELLS/uL
  BASOPHIL: 0%
  EOSINOPHIL: 0.5%
  ERYTHROCYTE COUNT: 5.61 x10E6/uL
  HEMATOCRIT: 34.6%
  HEMOGLOBIN: 12.85 G/DL
  LEUKOCYTE COUNT: 14.9 x10E3/uL
  LYMPHOCYTE: 78.5%
  MEAN CORPUSCULAR HEMOGLOBIN: 22.95 pg
  MEAN CORPUSCULAR HEMOGLOBIN CONCENTRATION: 37.15 G/DL
  MEAN CORPUSCULAR VOLUME: 61.75 fL
  MONOCYTE: 3%
  NEUTROPHIL: 18%
  NUCLEATED RED BLOOD CELLS: 0.5 /100WBC
  PLATELET COUNT: 1202 x10E3/uL
  ALANINE AMINOTRANSFERASE: 57 u/L
  ALBUMIN: 4.05 G/DL
  ALKALINE PHOSPHATASE: 244.5 u/L
  ASPARTATE AMINOTRANSFERASE: 74 u/L
  BLOOD UREA NITROGEN: 11.5 mg/dL
  CARBON DIOXIDE: 27 mmol/L
  CHLORIDE: 104.5 MEQ/L
  CHOLESTEROL: 70 mg/dL
  CREATININE: 0.15 mg/dL
  GLUCOSE: 152 mg/dL
  LACTATE DEHYDROGENASE: 156 u/L
  LIPASE: 8.5 u/L
  PHOSPHORUS: 13.1 mg/dL
  POTASSIUM: 6.73 MEQ/L
  SODIUM: 149.4 MEQ/L
  TOTAL BILIRUBIN: 0.15 mg/dL
  TOTAL PROTEIN: 5.9 G/DL
  URIC ACID: 2.25 mg/dL
Dose level M1, time 14 day
  ABSOLUTE BASOPHIL: 0 CELLS/uL
  ABSOLUTE EOSINOPHIL: 0 CELLS/uL
  ABSOLUTE LYMPHOCYTE: 12693.75 CELLS/uL
  ABSOLUTE MONOCYTE: 445.5 CELLS/uL
  ABSOLUTE SEGMENTED NEUTROPHIL: 2010.75 CELLS/uL
  BASOPHIL: 0%
  EOSINOPHIL: 0%
  ERYTHROCYTE COUNT: 5.78 x10E6/uL
  HEMATOCRIT: 35.65%
  HEMOGLOBIN: 12.93 G/DL
  LEUKOCYTE COUNT: 15.15 x10E3/uL
  LYMPHOCYTE: 83.25%
  MEAN CORPUSCULAR HEMOGLOBIN: 22.38 pg
  MEAN CORPUSCULAR HEMOGLOBIN CONCENTRATION: 36.27 G/DL
  MEAN CORPUSCULAR VOLUME: 61.73 fL
  MONOCYTE: 3.25%
  NEUTROPHIL: 13.5%
  NUCLEATED RED BLOOD CELLS: 0 /100WBC
  PLATELET COUNT: 856.5 x10E3/uL
  ALANINE AMINOTRANSFERASE: 62.75 u/L
  ALBUMIN: 4.12 G/DL
  ALKALINE PHOSPHATASE: 336 u/L
  ASPARTATE AMINOTRANSFERASE: 83.25 u/L
  BLOOD UREA NITROGEN: 16.5 mg/dL
  CARBON DIOXIDE: 32 mmol/L
  CHLORIDE: 100.75 MEQ/L
  CHOLESTEROL: 75.75 mg/dL
  CREATININE: 0.21 mg/dL
  GLUCOSE: 144 mg/dL
  LACTATE DEHYDROGENASE: 122.25 u/L
  LIPASE: 8.75 u/L
  PHOSPHORUS: 13.35 mg/dL
  POTASSIUM: 7.05 MEQ/L
  SODIUM: 145.78 MEQ/L
  TOTAL BILIRUBIN: 0.1 mg/dL
  TOTAL PROTEIN: 6.1 G/DL
  URIC ACID: 1.88 mg/dL
